Test results reported in the supplement of paper PMC10307832.

Assays:
Test in all cases: relative viability (nuclei count vs DMSO), 5 days (fraction); higher = more cells survive
FH535 + Bortezomib = compound: CC1=C(C=CC(=C1)[N+](=O)[O-])NS(=O)(=O)C2=C(C=CC(=C2)Cl)Cl [FH535] + CC(C)C[C@H](NC(=O)[C@H](Cc1ccccc1)NC(=O)c1cnccn1)B(O)O [Bortezomib] (partner 0.002 µM)
How it was run: (§1)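 Lung cancer cell lines were seeded in 1536-well plates and dosed by pin tool the next day, with either a single drug or a fixed anchor-drug dose combined with five library-drug doses (not always all listed) spaced in √10 steps. Five days later, one step fixed the cells and stained their nuclei (final 0.05% Triton X-100, 1% formaldehyde, 1 ug/ml Hoechst), and nuclei were counted on 4× images. Relative viability is the nuclei count in treated wells divided by the count in vehicle wells, and each value is the median of duplicate plates.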

FH535 + Palbociclib = compound: CC1=C(C=CC(=C1)[N+](=O)[O-])NS(=O)(=O)C2=C(C=CC(=C2)Cl)Cl [FH535] + CC(=O)c1c(C)c2cnc(Nc3ccc(N4CCNCC4)cn3)nc2n(C2CCCC2)c1=O [Palbociclib] (partner 0.5 µM)
How it was run: as §1

FH535 + Pemetrexed = compound: CC1=C(C=CC(=C1)[N+](=O)[O-])NS(=O)(=O)C2=C(C=CC(=C2)Cl)Cl [FH535] + Nc1nc2[nH]cc(CCc3ccc(C(=O)N[C@@H](CCC(=O)O)C(=O)O)cc3)c2c(=O)[nH]1 [Pemetrexed] (partner 0.2 µM)
How it was run: as §1

FH535 + Tozasertib = compound: CC1=C(C=CC(=C1)[N+](=O)[O-])NS(=O)(=O)C2=C(C=CC(=C2)Cl)Cl [FH535] + Cc1cc(Nc2cc(N3CCN(C)CC3)nc(Sc3ccc(NC(=O)C4CC4)cc3)n2)n[nH]1 [Tozasertib] (partner 0.1 µM)
How it was run: as §1

FH535 + OSI-027 = compound: CC1=C(C=CC(=C1)[N+](=O)[O-])NS(=O)(=O)C2=C(C=CC(=C2)Cl)Cl [FH535] + COc1cccc2cc(-c3nc([C@H]4CC[C@H](C(=O)O)CC4)n4ncnc(N)c34)[nH]c12 [OSI-027] (partner 0.5 µM)
How it was run: as §1

| Cell Line | relative viability (FH535 + Bortezomib; first compound 0.04 µM) | relative viability (FH535 + Bortezomib; first compound 0.1265 µM) | relative viability (FH535 + Bortezomib; first compound 0.4 µM) | relative viability (FH535 + Bortezomib; first compound 1.265 µM) | relative viability (FH535 + Palbociclib; first compound 0.04 µM) | relative viability (FH535 + Palbociclib; first compound 0.1265 µM) | relative viability (FH535 + Palbociclib; first compound 0.4 µM) | relative viability (FH535 + Palbociclib; first compound 1.265 µM) | relative viability (FH535 + Pemetrexed; first compound 0.04 µM) | relative viability (FH535 + Pemetrexed; first compound 0.1265 µM) | relative viability (FH535 + Pemetrexed; first compound 0.4 µM) | relative viability (FH535 + Pemetrexed; first compound 1.265 µM) | relative viability (FH535 + Tozasertib; first compound 0.04 µM) | relative viability (FH535 + Tozasertib; first compound 0.1265 µM) | relative viability (FH535 + Tozasertib; first compound 0.4 µM) | relative viability (FH535 + Tozasertib; first compound 1.265 µM) | relative viability (FH535 + OSI-027; first compound 0.04 µM) | relative viability (FH535 + OSI-027; first compound 0.1265 µM) | relative viability (FH535 + OSI-027; first compound 0.4 µM) | relative viability (FH535 + OSI-027; first compound 1.265 µM) |
| --- | --- | --- | --- | --- | --- | --- | --- | --- | --- | --- | --- | --- | --- | --- | --- | --- | --- | --- | --- | --- |
| NCI-H1915 | 0.955 | 0.855 | 0.986 | 0.904 | 0.537 | 0.501 | 0.469 | 0.45 | 0.472 | 0.522 | 0.498 | 0.487 | 0.38 | 0.418 | 0.429 | 0.356 | 0.542 | 0.683 | 0.552 | 0.525 |
| BEN | 0.755 | 0.615 | 0.647 | 0.475 | 0.477 | 0.455 | 0.489 | 0.431 | 0.708 | 0.755 | 0.638 | 0.613 | 0.547 | 0.483 | 0.483 | 0.487 | 0.287 | 0.281 | 0.313 | 0.27 |
| NCI-H2405 | 0.987 | 0.916 | 0.906 | 0.509 | 0.5 | 0.504 | 0.492 | 0.354 | 0.977 | 1.01 | 0.769 | 0.565 | 0.746 | 0.755 | 0.782 | 0.579 | 0.605 | 0.62 | 0.564 | 0.439 |
| H3255 | 0.614 | 0.827 | 0.708 | 0.409 | 0.302 | 0.307 | 0.346 | 0.307 | 0.58 | 0.564 | 0.545 | 0.577 | 0.62 | 0.716 | 0.659 | 0.452 | 0.564 | 0.583 | 0.648 | 0.505 |
| NCI-H460 | 0.984 | 1.24 | 1.16 | 0.668 | 0.175 | 0.253 | 0.244 | 0.117 | 0.0603 | 0.0608 | 0.0625 | 0.0646 | 0.219 | 0.5 | 0.382 | 0.21 | 0.612 | 0.754 | 0.542 | 0.375 |
| NCI-H2228 | 0.933 | 0.81 | 0.839 | 0.829 | 0.734 | 0.548 | 0.745 | 0.788 | 0.312 | 0.364 | 0.327 | 0.341 | 0.238 | 0.244 | 0.305 | 0.215 | 0.487 | 0.71 | 0.658 | 0.522 |
| NCI-H1975 | 0.312 | 0.381 | 0.374 | 0.338 | 0.627 | 0.403 | 0.481 | 0.474 | 0.286 | 0.309 | 0.277 | 0.275 | 0.654 | 0.726 | 0.602 | 0.635 | 0.721 | 0.705 | 0.584 | 0.534 |
| NCI-H650 | 0.704 | 0.854 | 0.794 | 0.506 | 0.282 | 0.35 | 0.332 | 0.266 | 0.926 | 0.956 | 0.915 | 0.68 | 0.603 | 0.783 | 0.766 | 0.51 | 0.465 | 0.515 | 0.433 | 0.344 |
| A-427 | 0.967 | 0.982 | 0.829 | 0.908 | 0.532 | 0.575 | 0.546 | 0.474 | 0.979 | 0.973 | 0.953 | 0.785 | 0.175 | 0.205 | 0.243 | 0.159 | 0.368 | 0.496 | 0.378 | 0.43 |
| LXF-289 | 0.96 | 0.996 | 0.928 | 0.723 | 0.597 | 0.618 | 0.559 | 0.497 | 0.775 | 0.948 | 0.95 | 0.751 | 0.191 | 0.172 | 0.166 | 0.136 | 0.735 | 0.809 | 0.688 | 0.69 |
| NCI-H838 | 0.701 | 0.713 | 0.694 | 0.575 | 0.217 | 0.222 | 0.208 | 0.198 | 0.249 | 0.233 | 0.216 | 0.204 | 0.286 | 0.246 | 0.272 | 0.19 | 0.388 | 0.423 | 0.388 | 0.328 |
| NCI-H1437 | 0.427 | 0.624 | 0.303 | 0.286 | 0.316 | 0.314 | 0.237 | 0.229 | 0.297 | 0.328 | 0.284 | 0.2 | 0.425 | 0.404 | 0.358 | 0.22 | 0.862 | 0.851 | 0.647 | 0.434 |
| SK-LU-1 | 0.85 | 1.19 | 1.04 | 0.926 | 0.412 | 0.406 | 0.373 | 0.334 | 1.01 | 1.01 | 1.04 | 0.865 | 0.319 | 0.38 | 0.316 | 0.32 | 0.359 | 0.347 | 0.324 | 0.235 |
| HCC-44 | 0.952 | 0.811 | 0.856 | 0.652 | 1.02 | 0.889 | 0.914 | 0.79 | 0.647 | 0.687 | 0.604 | 0.628 | 0.916 | 1 | 0.933 | 0.756 | 0.494 | 0.458 | 0.407 | 0.321 |
| EPLC-272H | 0.788 | 0.967 | 0.925 | 0.848 | 0.363 | 0.336 | 0.337 | 0.299 | 0.301 | 0.366 | 0.353 | 0.308 | 0.148 | 0.249 | 0.194 | 0.214 | 0.27 | 0.296 | 0.279 | 0.238 |
| NCI-H647 | 0.964 | 0.584 | 0.818 | 0.95 | 0.401 | 0.445 | 0.27 | 0.4 | 0.2 | 0.219 | 0.187 | 0.152 | 0.314 | 0.145 | 0.176 | 0.42 | 0.486 | 0.809 | 0.673 | 0.543 |
| NCI-H441 | 0.356 | 0.351 | 0.376 | 0.293 | 0.212 | 0.197 | 0.176 | 0.174 | 0.232 | 0.254 | 0.231 | 0.257 | 0.614 | 0.755 | 0.581 | 0.564 | 0.529 | 0.559 | 0.508 | 0.527 |
